Laboratory results: US20100255015A1 (priority 2007, published 2010)
Where two headings read alike, the source gives them in different places.

Key:
Z5B71 T cell clone = experiment: T cell activation assay: stimulation of the Z5B71 T cell clone, IFN-γ ELISA; assay type: cell-based, human; settings: antigen-loaded APCs, 36 hr
[1] = tested on: PBMCs with autologous DCs; assay type: cell-based, human
[2] = tested on: CD1b-restricted T cell clones Z5B71, Z4B27, Z5B11; experiment: DCs pulsed with heat-killed or infected with living M. tuberculosis, recognition by CD1b-restricted T cell clones; assay type: cell-based, human
Experimental: Pulsing and infection of DCs with M. tuberculosis. M. tuberculosis was killed at 80° C. for 20 min and incubated in RPMI-1640 medium containing 10% FCS for 2 hours at 37° C. with DCs (3×10^4/well) before addition of T cells (10^5/well in triplicate). DCs were infected as previously described De Libero et al. (2005) Immunity 22, 763-72 and IFN-γ release was monitored by ELISA.

CD1b = target: T1, CD1b (Homo sapiens, UniProt P29016); assay type: cell-based; settings: Z5B71 clone
T1 construct: expressed in transfected cells; host or cells: THP-1 (human promyelocytic), BCMGS-Neo / -Hygro vectors, electroporation
T1 sequence (P61769 21-119): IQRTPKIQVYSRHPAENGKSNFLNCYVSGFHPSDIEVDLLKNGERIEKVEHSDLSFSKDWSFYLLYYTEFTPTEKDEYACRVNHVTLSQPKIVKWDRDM
T1 sequence (P29016 18-333): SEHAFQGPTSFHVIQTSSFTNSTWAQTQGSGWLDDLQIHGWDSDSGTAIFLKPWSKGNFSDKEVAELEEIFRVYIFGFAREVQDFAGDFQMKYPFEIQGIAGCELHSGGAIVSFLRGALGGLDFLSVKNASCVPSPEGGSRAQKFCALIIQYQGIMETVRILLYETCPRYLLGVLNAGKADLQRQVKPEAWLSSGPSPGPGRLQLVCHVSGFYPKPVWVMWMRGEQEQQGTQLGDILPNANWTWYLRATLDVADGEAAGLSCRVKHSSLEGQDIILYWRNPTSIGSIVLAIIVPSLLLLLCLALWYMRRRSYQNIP

| Substance | stimulation of the Z5B71 T cell clone (IFN-γ release) (Z5B71 T cell clone) | IFN-γ release after stimulation, mean average [1] | IFN-γ release after stimulation, mean average ([1]; 10 μg/ml, 6 days) | effect of blocking antibodies against type 1 CD1 molecules on induced IFN-γ secretion ([1]; PPD-positive healthy donors, CD1 blocking antibodies 10 μg/ml each) | IFN-γ release after stimulation ([1]; naïve, PPD-negative donors (n=10), 10 μg/ml, 6 days) | IFN-γ release after stimulation ([1]; tuberculosis patients (n=11), 10 μg/ml, 6 days) | immunogenicity when APCs infected with living M. tuberculosis (IFN-γ release by Z5B71) [2] | T cell response with APCs expressing CD1b and CD1e versus only CD1b (IFN-γ release) (CD1b; THP-1-CD1b vs THP-1-CD1b-CD1e) | CD1 restriction: T cell stimulation with panel of CD1-transfected APCs (TNF-α release) (CD1b; THP-1 transfected with CD1A, CD1B or CD1C) | CD1 restriction: inhibition of clone reactivity by anti-CD1 mAbs (TNF-α release) (CD1b; mAbs at 10 μg/ml, 30 min before T cells) |
| --- | --- | --- | --- | --- | --- | --- | --- | --- | --- | --- |
| (R)-1-O-mycoloyl-glycerol (3-O-mycoloyl-sn-glycerol) [s(R)-GroMM] | stimulated the Z5B71 T cells more efficiently than the s(S)-GroMM | – | – | – | – | – | – | – | – | – |
| (S)-1-O-mycoloyl-glycerol (1-O-mycoloyl-sn-glycerol) [s(S)-GroMM] | s(R)-GroMM stimulated the Z5B71 T cells more efficiently than the s(S)-GroMM | – | – | – | – | – | – | – | – | – |
| glycerol monomycolate [GroMM] | intermediate activity | 117 pg/mL | 73 pg/mL | abrogated the reactivity | no response | no IFN-γ secretion above background levels | highly immunogenic | very similar T cell response | Only CD1b-expressing cells were able to stimulate T cells | only anti-CD1b mAbs were capable of inhibiting the reactivity of the clone |
